We go through two molecules from ChEMBL document CHEMBL1142142, “Synergistic activities of azithromycin and amphotericin B against Naegleria fowleri in vitro and in a mouse model of primary amebic meningoencephalitis” (Antimicrob Agents Chemother, 2007).

Each structure is given as a SMILES string. Calls of active or inactive are those of the source. No cut-off for these calls is given here.

Assay [1] deals with Mus musculus. As to the kind of experiment: Protection against Naegleria fowleri Lee (M67) infection in CD1 mouse at 25 mg/kg/day, ip. It is filed as functional. As to conditions: route intraperitoneal.
The test system of assay [2] is Naegleria fowleri. As to the kind of experiment: Antimicrobial activity against Naegleria fowleri Lee (M67) at day 2. The class given is functional, organism-based. As to conditions: 48 h.
Assay [3] relates to Naegleria fowleri. As to the kind of experiment: Antimicrobial activity against Naegleria fowleri Lee (M67) at day 3. The class given is functional, organism-based. As to conditions: 72 h.
The test system of assay [4] is Naegleria fowleri. As to the kind of experiment: Antimicrobial activity against Naegleria fowleri Lee (M67) in presence of azithromycin at 1:3 ratio on day 2. The class given is functional.
For assay [5], the system named is Naegleria fowleri. Description: Antimicrobial activity against Naegleria fowleri Lee (M67) in presence of azithromycin at 1:1 ratio on day 2. The class given is functional.
In assay [6] the test system is Naegleria fowleri. As to the kind of experiment: Antimicrobial activity against Naegleria fowleri Lee (M67) in presence of azithromycin at 3:1 ratio on day 2. It is filed as functional.
For assay [7], the system named is Naegleria fowleri. As to the kind of experiment: Antimicrobial activity against Naegleria fowleri Lee (M67) in presence of azithromycin at 1:3 ratio on day 3. It is filed as functional.
Assay [8] concerns Naegleria fowleri. Description: Antimicrobial activity against Naegleria fowleri Lee (M67) in presence of azithromycin at 1:1 ratio on day 3. It is filed as functional.
Assay [9] relates to Naegleria fowleri. As to the kind of experiment: Antimicrobial activity against Naegleria fowleri Lee (M67) in presence of azithromycin at 3:1 ratio on day 3. It is filed as functional.
The test system of assay [10] is Mus musculus. Description: Effect on mortality in Naegleria fowleri Lee (M67) infected CD1 mouse at 25 mg/kg/day, ip. The class given is functional. As to conditions: route intraperitoneal.
For assay [11], the system named is Mus musculus. Description: Effect on mean time to death in Naegleria fowleri Lee (M67) infected CD1 mouse at 25 mg/kg/day, ip. The class given is functional. As to conditions: route intraperitoneal.
The test system of assay [12] is Mus musculus. As to the kind of experiment: Effect on mean time to death in Naegleria fowleri Lee (M67) infected CD1 mouse at 2.5 mg/kg, ip in presence of azithromycin. It is filed as functional, organism-based. Details: dose 2.5 mg/kg.
Assay [13] relates to Mus musculus. Description: Protection against Naegleria fowleri Lee (M67) infection in CD1 mouse at 2.5 mg/kg/day, ip. As to conditions: route intraperitoneal. The class given is functional.
In assay [14] the test system is Mus musculus. Description: Protection against Naegleria fowleri Lee (M67) infection in CD1 mouse at 2.5 mg/kg, ip in presence of azithromycin. It is filed as functional. As to conditions: route intraperitoneal.
Assay [15] deals with Naegleria fowleri. Description: Antimicrobial activity against Naegleria fowleri Lee (M67) in presence of amphotericin B at 1:3 ratio on day 2. The class given is functional.
In assay [16] the test system is Naegleria fowleri. Description: Antimicrobial activity against Naegleria fowleri Lee (M67) in presence of amphotericin B at 1:1 ratio on day 2. The class given is functional.
For assay [17], the system named is Naegleria fowleri. As to the kind of experiment: Antimicrobial activity against Naegleria fowleri Lee (M67) in presence of amphotericin B at 3:1 ratio on day 2. It is filed as functional.
Assay [18] has as its system Naegleria fowleri. As to the kind of experiment: Antimicrobial activity against Naegleria fowleri Lee (M67) in presence of amphotericin B at 1:3 ratio on day 3. The class given is functional.
Assay [19] relates to Naegleria fowleri. As to the kind of experiment: Antimicrobial activity against Naegleria fowleri Lee (M67) in presence of amphotericin B at 1:1 ratio on day 3. The class given is functional.
Assay [20] concerns Naegleria fowleri. As to the kind of experiment: Antimicrobial activity against Naegleria fowleri Lee (M67) in presence of amphotericin B at 3:1 ratio on day 3. It is filed as functional.
For assay [21], the system named is Mus musculus. Description: Effect on mortality in Naegleria fowleri Lee (M67) infected CD1 mouse at 2.5 mg/kg/day, ip. It is filed as functional. As to conditions: route intraperitoneal.
The subject of assay [22] is Mus musculus. As to the kind of experiment: Effect on mortality in Naegleria fowleri Lee (M67) infected CD1 mouse at 2.5 mg/kg, ip in presence of azithromycin. It is filed as functional. As to conditions: route intraperitoneal.
For assay [23], the system named is Mus musculus. Description: Effect on mean time to death in Naegleria fowleri Lee (M67) infected CD1 mouse at 2.5 mg/kg/day, ip. The class given is functional. As to conditions: route intraperitoneal.

The IC50 is the concentration that inhibits the measured activity by half. `CC[C@H]1OC(=O)[C@H](C)[C@@H](O[C@H]2C[C@@](C)(OC)[C@@H](O)[C@H](C)O2)[C@H](C)[C@@H](O[C@@H]2O[C@H](C)C[C@H](N(C)C)[C@H]2O)[C@](C)(O)C[C@@H](C)CN(C)[C@H](C)[C@@H](O)[C@]1(C)O` [AZITHROMYCIN]: the figures for the Activity with Mus musculus [1], in the assay on Mus musculus [10] and in the assay on Mus musculus [11] were 40%, 45% and 12.4 days, respectively. Besides, the half-maximal inhibitory concentration (IC50) with Naegleria fowleri [2] was 2.6 nM; in the assay on Naegleria fowleri [3] it was 3.1 nM. The FIC50 in the assay on Naegleria fowleri [4] was 0.464; in the assay with Naegleria fowleri [5] it was 0.238; in the assay with Naegleria fowleri [6], 0.088; with Naegleria fowleri [7], 0.55; in the assay with Naegleria fowleri [8], 0.308; in the assay on Naegleria fowleri [9], 0.103.
Turning to `C[C@@H]1[C@H](O)[C@@H](C)/C=C/C=C/C=C/C=C/C=C/C=C/C=C/[C@H](O[C@@H]2O[C@H](C)[C@@H](O)[C@H](N)[C@@H]2O)C[C@@H]2O[C@](O)(C[C@@H](O)C[C@@H](O)[C@H](O)CC[C@@H](O)C[C@@H](O)CC(=O)O[C@H]1C)C[C@H](O)[C@H]2C(=O)O` [AMPHOTERICIN B], in the assay on Mus musculus [12], the outcome was Active. For the same molecule, the Activity was 27% in the assay with Mus musculus [13]; 100% in the assay with Mus musculus [14]; 55% in the assay on Mus musculus [21]; 0% in the assay with Mus musculus [22]; 7 days in the assay on Mus musculus [23]. Further, the results for the IC50 with Naegleria fowleri [2] and in the assay on Naegleria fowleri [3] were 26.4 nM and 18.3 nM, respectively. The FIC50 in the assay with Naegleria fowleri [15] was determined as 0.311; in the assay with Naegleria fowleri [16] it was 0.241; in the assay with Naegleria fowleri [17], 0.254; in the assay with Naegleria fowleri [18], 0.167; with Naegleria fowleri [19], 0.309; in the assay with Naegleria fowleri [20], 0.303.
